Experiments:
[1] = molecular target: Protein kinase C alpha type (Homo sapiens, UniProt P17252); type: cell-based; details: sf9;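 further: inhibition of PKCalpha kinase activity measured in an enzyme assay with histone as the phosphorylation substrate; in other assays of this panel Not Active means under 50% inhibition at 10 µM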
Cytochrome P450 2D6 = Cytochrome P450 2D6 (Homo sapiens, UniProt P10635); details: bti-tn-5b1-4; further: in other assays of this panel Not Active means under 50% inhibition at 10 µM
[2] = molecular target: Beta-2 adrenergic receptor (Homo sapiens, UniProt P07550); test: DRUGMATRIX: Adrenergic beta2 radioligand binding (ligand: [3H] CGP-12177); type: cell membranes, CHO, Membrane; details: cho; Not Active = under 50% inhibition at 10 µM
[3] = molecular target: Tyrosine-protein kinase Fyn (Homo sapiens, UniProt P06241); test: biochemical; type: cell-based, Insect cells; details: insect cells;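 further: enzymatic inhibition of Fyn kinase activity measured with Poly(Glu:Tyr) as the phosphorylation substrate; in other assays of this panel Not Active means under 50% inhibition at 10 µM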
[4] = molecular target: T1, Nitric oxide synthase, inducible (Mus musculus, UniProt P29477); parameters: species or system Escherichia coli;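 further: inhibition of iNOS enzyme activity measured with L-arginine as substrate; in other assays of this panel Not Active means under 50% inhibition at 10 µM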
T1 sequence (P29477 whole entry): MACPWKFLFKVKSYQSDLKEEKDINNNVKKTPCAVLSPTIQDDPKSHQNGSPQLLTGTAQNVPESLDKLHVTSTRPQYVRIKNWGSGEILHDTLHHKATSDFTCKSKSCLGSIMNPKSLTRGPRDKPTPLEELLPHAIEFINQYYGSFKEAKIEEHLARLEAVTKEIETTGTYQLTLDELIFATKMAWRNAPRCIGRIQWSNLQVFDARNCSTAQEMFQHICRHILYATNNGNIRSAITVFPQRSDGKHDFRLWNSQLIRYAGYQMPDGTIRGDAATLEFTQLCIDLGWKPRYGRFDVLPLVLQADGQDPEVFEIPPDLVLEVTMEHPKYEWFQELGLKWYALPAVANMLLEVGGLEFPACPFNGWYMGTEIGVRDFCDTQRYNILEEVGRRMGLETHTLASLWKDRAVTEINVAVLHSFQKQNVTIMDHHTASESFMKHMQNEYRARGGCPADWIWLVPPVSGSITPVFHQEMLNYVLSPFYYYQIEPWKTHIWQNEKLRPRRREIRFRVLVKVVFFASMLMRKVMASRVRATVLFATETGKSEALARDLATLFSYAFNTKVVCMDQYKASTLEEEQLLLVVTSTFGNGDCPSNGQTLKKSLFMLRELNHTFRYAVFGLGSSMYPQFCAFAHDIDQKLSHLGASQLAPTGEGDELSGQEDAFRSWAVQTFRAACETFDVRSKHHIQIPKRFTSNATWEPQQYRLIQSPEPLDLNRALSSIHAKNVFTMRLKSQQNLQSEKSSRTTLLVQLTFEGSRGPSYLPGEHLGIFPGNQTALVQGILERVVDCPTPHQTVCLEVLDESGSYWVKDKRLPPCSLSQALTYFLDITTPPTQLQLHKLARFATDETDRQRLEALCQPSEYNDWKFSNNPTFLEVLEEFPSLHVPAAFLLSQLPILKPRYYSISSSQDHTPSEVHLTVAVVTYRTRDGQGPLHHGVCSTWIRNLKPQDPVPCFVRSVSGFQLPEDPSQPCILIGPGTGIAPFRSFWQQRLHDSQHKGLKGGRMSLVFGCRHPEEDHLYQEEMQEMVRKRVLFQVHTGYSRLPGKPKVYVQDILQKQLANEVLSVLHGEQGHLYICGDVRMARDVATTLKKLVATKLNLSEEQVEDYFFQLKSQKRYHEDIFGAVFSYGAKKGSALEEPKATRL

Cytochrome P450 2A6 = molecular target: T2, Cytochrome P450 2A6 (Homo sapiens, UniProt P11509); details: bti-tn-5b1-4; further: in other assays of this panel Not Active means under 50% inhibition at 10 µM
T2 sequence (P11509 whole entry): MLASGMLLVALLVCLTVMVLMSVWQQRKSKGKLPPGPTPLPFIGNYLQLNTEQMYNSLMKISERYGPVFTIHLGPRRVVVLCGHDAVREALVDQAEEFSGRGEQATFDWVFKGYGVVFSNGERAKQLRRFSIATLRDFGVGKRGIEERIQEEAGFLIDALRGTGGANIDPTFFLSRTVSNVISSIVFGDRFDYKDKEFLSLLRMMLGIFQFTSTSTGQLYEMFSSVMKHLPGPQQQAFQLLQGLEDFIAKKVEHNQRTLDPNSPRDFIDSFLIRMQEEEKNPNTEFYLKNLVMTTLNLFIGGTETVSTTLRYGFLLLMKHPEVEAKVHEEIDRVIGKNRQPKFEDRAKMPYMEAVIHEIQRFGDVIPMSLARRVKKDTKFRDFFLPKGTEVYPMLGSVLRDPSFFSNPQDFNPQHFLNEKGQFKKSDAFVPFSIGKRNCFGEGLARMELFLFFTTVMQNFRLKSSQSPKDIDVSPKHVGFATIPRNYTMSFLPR

[5] = molecular target: Protein phosphatase 3 catalytic subunit alpha (Homo sapiens, UniProt Q08209); parameters: species or system Escherichia coli
[6] = molecular target: Epidermal growth factor receptor (Homo sapiens, UniProt P00533); test: DRUGMATRIX: Protein Tyrosine Kinase, EGF Receptor enzyme inhibition (substrate: Poly(Glu:Tyr)); type: cell-based, Insect cells; details: insect cells; Not Active = under 50% inhibition at 10 µM
Epidermal growth factor receptor, sequence (P00533 whole entry): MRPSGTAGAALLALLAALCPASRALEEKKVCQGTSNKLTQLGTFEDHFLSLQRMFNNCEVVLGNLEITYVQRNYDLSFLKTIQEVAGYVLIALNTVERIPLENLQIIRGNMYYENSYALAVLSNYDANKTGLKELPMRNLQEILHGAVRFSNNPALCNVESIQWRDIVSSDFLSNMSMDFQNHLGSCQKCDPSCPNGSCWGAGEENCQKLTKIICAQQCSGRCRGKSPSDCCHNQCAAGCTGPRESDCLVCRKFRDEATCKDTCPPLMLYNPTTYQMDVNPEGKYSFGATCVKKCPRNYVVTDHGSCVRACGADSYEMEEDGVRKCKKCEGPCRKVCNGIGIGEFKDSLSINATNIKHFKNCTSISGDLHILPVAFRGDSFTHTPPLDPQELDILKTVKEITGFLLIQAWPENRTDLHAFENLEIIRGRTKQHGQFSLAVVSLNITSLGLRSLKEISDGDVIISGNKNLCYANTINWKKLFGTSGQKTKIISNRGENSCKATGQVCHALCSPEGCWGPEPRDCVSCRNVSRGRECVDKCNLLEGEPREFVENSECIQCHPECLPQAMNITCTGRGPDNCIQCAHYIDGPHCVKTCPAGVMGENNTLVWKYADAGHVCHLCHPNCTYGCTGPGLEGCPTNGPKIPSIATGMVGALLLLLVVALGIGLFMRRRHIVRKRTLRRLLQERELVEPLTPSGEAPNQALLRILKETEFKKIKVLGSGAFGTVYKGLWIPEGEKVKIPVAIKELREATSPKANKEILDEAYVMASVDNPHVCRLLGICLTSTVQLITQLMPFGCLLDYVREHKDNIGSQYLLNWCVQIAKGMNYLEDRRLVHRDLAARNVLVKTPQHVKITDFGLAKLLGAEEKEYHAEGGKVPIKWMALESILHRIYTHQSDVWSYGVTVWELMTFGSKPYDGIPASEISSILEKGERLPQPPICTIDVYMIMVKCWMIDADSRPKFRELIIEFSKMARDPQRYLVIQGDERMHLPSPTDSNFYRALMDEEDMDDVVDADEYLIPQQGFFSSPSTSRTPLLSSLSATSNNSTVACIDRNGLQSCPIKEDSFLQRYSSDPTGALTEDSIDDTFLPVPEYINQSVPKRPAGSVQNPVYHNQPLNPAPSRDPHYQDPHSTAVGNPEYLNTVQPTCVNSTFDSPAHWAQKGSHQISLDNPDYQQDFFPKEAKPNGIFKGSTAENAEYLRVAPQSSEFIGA

Tyrosine-protein kinase Fyn, sequence (P06241 whole entry): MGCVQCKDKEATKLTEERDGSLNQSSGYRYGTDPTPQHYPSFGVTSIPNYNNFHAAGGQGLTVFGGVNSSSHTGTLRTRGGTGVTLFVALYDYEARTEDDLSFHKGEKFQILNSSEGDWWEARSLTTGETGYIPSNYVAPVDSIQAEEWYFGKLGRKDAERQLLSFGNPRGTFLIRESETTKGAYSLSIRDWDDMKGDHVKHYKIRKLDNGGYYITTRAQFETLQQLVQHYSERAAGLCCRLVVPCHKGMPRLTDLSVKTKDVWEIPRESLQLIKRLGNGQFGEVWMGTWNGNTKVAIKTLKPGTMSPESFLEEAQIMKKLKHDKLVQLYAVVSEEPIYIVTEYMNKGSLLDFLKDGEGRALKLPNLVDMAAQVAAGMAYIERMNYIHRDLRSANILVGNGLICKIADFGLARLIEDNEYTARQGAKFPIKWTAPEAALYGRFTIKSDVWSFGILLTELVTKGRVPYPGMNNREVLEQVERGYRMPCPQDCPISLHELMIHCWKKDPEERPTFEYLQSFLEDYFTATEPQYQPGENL
Cytochrome P450 2D6, sequence (P10635 whole entry): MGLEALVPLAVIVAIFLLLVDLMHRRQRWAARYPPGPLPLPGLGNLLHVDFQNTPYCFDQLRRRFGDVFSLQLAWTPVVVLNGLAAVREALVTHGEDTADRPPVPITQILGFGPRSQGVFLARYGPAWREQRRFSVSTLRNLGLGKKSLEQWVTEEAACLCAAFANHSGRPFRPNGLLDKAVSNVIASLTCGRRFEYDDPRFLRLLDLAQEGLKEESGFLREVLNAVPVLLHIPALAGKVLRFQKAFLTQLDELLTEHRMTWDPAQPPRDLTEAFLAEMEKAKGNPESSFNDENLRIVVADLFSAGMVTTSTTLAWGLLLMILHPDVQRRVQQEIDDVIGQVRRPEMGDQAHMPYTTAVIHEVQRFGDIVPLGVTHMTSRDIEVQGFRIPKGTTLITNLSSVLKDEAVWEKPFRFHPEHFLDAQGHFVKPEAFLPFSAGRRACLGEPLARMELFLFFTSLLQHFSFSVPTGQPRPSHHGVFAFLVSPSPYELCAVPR
Beta-2 adrenergic receptor, sequence (P07550 whole entry): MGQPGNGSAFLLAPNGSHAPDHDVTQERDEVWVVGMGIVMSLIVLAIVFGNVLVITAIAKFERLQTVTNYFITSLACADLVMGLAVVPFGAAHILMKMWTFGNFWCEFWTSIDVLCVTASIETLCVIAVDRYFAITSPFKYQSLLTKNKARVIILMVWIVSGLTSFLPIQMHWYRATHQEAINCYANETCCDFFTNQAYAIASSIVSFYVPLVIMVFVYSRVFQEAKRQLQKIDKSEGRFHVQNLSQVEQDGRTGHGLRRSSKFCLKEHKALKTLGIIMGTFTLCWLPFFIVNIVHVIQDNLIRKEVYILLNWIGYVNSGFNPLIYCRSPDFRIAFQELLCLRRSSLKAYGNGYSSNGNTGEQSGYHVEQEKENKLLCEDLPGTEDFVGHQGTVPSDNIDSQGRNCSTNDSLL

OCCO [ETHYLENE GLYCOL]
Not Active: IC50 [1] | IC50 (Cytochrome P450 2D6) | Ki (Cytochrome P450 2D6) | IC50 [2] | IC50 [3] | IC50 [4] | IC50 (Cytochrome P450 2A6) | Ki (Cytochrome P450 2A6) | IC50 [5] | IC50 [6]

CCN[C@@H](C)Cc1cccc(C(F)(F)F)c1 [DEXFENFLURAMINE]
Not Active: IC50 [1] | IC50 (Cytochrome P450 2D6) | Ki (Cytochrome P450 2D6) | IC50 [2] | IC50 [3] | IC50 [4] | IC50 (Cytochrome P450 2A6) | Ki (Cytochrome P450 2A6) | IC50 [5] | IC50 [6]

C[C@]12C/C(=C/O)C(=O)C[C@@H]1CC[C@@H]1[C@@H]2CC[C@@]2(C)[C@H]1CC[C@]2(C)O [OXYMETHOLONE]
Not Active: IC50 [1] | IC50 (Cytochrome P450 2D6) | Ki (Cytochrome P450 2D6) | IC50 [2] | IC50 [3] | IC50 [4] | IC50 (Cytochrome P450 2A6) | Ki (Cytochrome P450 2A6) | IC50 [5] | IC50 [6]

C=C(CC)C(=O)c1ccc(OCC(=O)O)c(Cl)c1Cl [ETHACRYNIC ACID]
Not Active: IC50 [1] | IC50 (Cytochrome P450 2D6) | Ki (Cytochrome P450 2D6) | IC50 [2] | IC50 [3] | IC50 [4] | IC50 (Cytochrome P450 2A6) | Ki (Cytochrome P450 2A6) | IC50 [5] | IC50 [6]

CCOC(=O)[C@H](CCc1ccccc1)N[C@@H](C)C(=O)N1Cc2ccccc2C[C@H]1C(=O)O
Not Active: IC50 [1] | IC50 (Cytochrome P450 2D6) | Ki (Cytochrome P450 2D6) | IC50 [2] | IC50 [3] | IC50 [4] | IC50 (Cytochrome P450 2A6) | Ki (Cytochrome P450 2A6) | IC50 [5] | IC50 [6]

CCc1oc2ccccc2c1C(=O)c1cc(Br)c(O)c(Br)c1 [BENZBROMARONE]
Not Active: IC50 [1] | IC50 (Cytochrome P450 2D6) | Ki (Cytochrome P450 2D6) | IC50 [2] | IC50 [3] | IC50 [4] | IC50 (Cytochrome P450 2A6) | Ki (Cytochrome P450 2A6) | IC50 [5] | IC50 [6]

CC[C@H]1OC(=O)[C@H](C)[C@@H](O[C@H]2C[C@@](C)(OC)[C@@H](O)[C@H](C)O2)[C@H](C)[C@@H](O[C@@H]2O[C@H](C)C[C@H](N(C)C)[C@H]2O)[C@](C)(OC)C[C@@H](C)C(=O)[C@H](C)[C@@H](O)[C@]1(C)O [CLARITHROMYCIN]
Not Active: IC50 [1] | IC50 (Cytochrome P450 2D6) | Ki (Cytochrome P450 2D6) | IC50 [2] | IC50 [3] | IC50 [4] | IC50 (Cytochrome P450 2A6) | Ki (Cytochrome P450 2A6) | IC50 [5] | IC50 [6]

CC(=O)O[C@]1(C(C)=O)CC[C@H]2[C@@H]3C=C(C)C4=CC(=O)CC[C@]4(C)[C@H]3CC[C@@]21C [MEGESTROL ACETATE]
Not Active: IC50 [1] | IC50 (Cytochrome P450 2D6) | Ki (Cytochrome P450 2D6) | IC50 [2] | IC50 [3] | IC50 [4] | IC50 (Cytochrome P450 2A6) | Ki (Cytochrome P450 2A6) | IC50 [5] | IC50 [6]

CC(C)C[C@H]1C(=O)N2CCC[C@H]2[C@]2(O)O[C@](NC(=O)[C@@H]3C=C4c5cccc6[nH]c(Br)c(c56)C[C@H]4N(C)C3)(C(C)C)C(=O)N12 [BROMOCRIPTINE]
Not Active: IC50 [1] | IC50 (Cytochrome P450 2D6) | Ki (Cytochrome P450 2D6) | IC50 [2] | IC50 [3] | IC50 [4] | IC50 (Cytochrome P450 2A6) | Ki (Cytochrome P450 2A6) | IC50 [5] | IC50 [6]

CC(=O)O[C@]1(C(C)=O)CC[C@H]2[C@@H]3C=C(Cl)C4=CC(=O)[C@@H]5C[C@@H]5[C@]4(C)[C@H]3CC[C@@]21C [CYPROTERONE ACETATE]
Not Active: IC50 [1] | IC50 (Cytochrome P450 2D6) | Ki (Cytochrome P450 2D6) | IC50 [2] | IC50 [3] | IC50 [4] | IC50 (Cytochrome P450 2A6) | Ki (Cytochrome P450 2A6) | IC50 [5] | IC50 [6]

CC(C)(Oc1ccc(C2CC2(Cl)Cl)cc1)C(=O)O (stereo not given) [CIPROFIBRATE]
Not Active: IC50 [1] | IC50 (Cytochrome P450 2D6) | Ki (Cytochrome P450 2D6) | IC50 [2] | IC50 [3] | IC50 [4] | IC50 (Cytochrome P450 2A6) | Ki (Cytochrome P450 2A6) | IC50 [5] | IC50 [6]

CC(C)(C)c1ccc(S(=O)(=O)/C=C/C#N)cc1 [BAY-11-7085]
Not Active: IC50 [1] | IC50 (Cytochrome P450 2D6) | Ki (Cytochrome P450 2D6) | IC50 [2] | IC50 [3] | IC50 [4] | IC50 (Cytochrome P450 2A6) | Ki (Cytochrome P450 2A6) | IC50 [5] | IC50 [6]

Cc1cccc(Nc2ccccc2C(=O)O)c1C [MEFENAMIC ACID]
Not Active: IC50 [1] | IC50 (Cytochrome P450 2D6) | Ki (Cytochrome P450 2D6) | IC50 [2] | IC50 [3] | IC50 [4] | IC50 (Cytochrome P450 2A6) | Ki (Cytochrome P450 2A6) | IC50 [5] | IC50 [6]

NC[C@@H]1O[C@H](O[C@H]2[C@@H](O)[C@H](O[C@@H]3[C@@H](O)[C@H](N)C[C@H](N)[C@H]3O[C@H]3O[C@H](CN)[C@@H](O)[C@H](O)[C@H]3N)O[C@@H]2CO)[C@H](N)[C@@H](O)[C@@H]1O [FRAMYCETIN]
Not Active: IC50 [1] | IC50 (Cytochrome P450 2D6) | Ki (Cytochrome P450 2D6) | IC50 [2] | IC50 [3] | IC50 [4] | IC50 (Cytochrome P450 2A6) | Ki (Cytochrome P450 2A6) | IC50 [5] | IC50 [6]

O=C(O)c1cccnc1 [NIACIN]
Not Active: IC50 [1] | IC50 (Cytochrome P450 2D6) | Ki (Cytochrome P450 2D6) | IC50 [2] | IC50 [3] | IC50 [4] | IC50 (Cytochrome P450 2A6) | Ki (Cytochrome P450 2A6) | IC50 [5] | IC50 [6]

CC[C@]1(O)CC[C@H]2[C@@H]3CCC4=CCCC[C@@H]4[C@H]3CC[C@@]21C
Not Active: IC50 [1] | IC50 (Cytochrome P450 2D6) | Ki (Cytochrome P450 2D6) | IC50 [2] | IC50 [3] | IC50 [4] | IC50 (Cytochrome P450 2A6) | Ki (Cytochrome P450 2A6) | IC50 [5] | IC50 [6]

COc1cc(CNC(=O)CCCC/C=C/C(C)C)ccc1O [CAPSAICIN]
Not Active: IC50 [1] | IC50 (Cytochrome P450 2D6) | Ki (Cytochrome P450 2D6) | IC50 [2] | IC50 [3] | IC50 [4] | IC50 (Cytochrome P450 2A6) | Ki (Cytochrome P450 2A6) | IC50 [5] | IC50 [6]

CN(C(=O)CCCOc1ccc2[nH]c(=O)ccc2c1)C1CCCCC1 [CILOSTAMIDE]
Not Active: IC50 [1] | IC50 (Cytochrome P450 2D6) | Ki (Cytochrome P450 2D6) | IC50 [2] | IC50 [3] | IC50 [4] | IC50 (Cytochrome P450 2A6) | Ki (Cytochrome P450 2A6) | IC50 [5] | IC50 [6]

CC(=O)OCC(CCn1cnc2cnc(N)nc21)COC(C)=O [FAMCICLOVIR]
Not Active: IC50 [1] | IC50 (Cytochrome P450 2D6) | Ki (Cytochrome P450 2D6) | IC50 [2] | IC50 [3] | IC50 [4] | IC50 (Cytochrome P450 2A6) | Ki (Cytochrome P450 2A6) | IC50 [5] | IC50 [6]

— ChEMBL document CHEMBL1909046, “DrugMatrix in vitro pharmacology data”
